# Measured values as given in patent US9682991B2, “Tricyclic compounds for use as kinase inhibitors” (FUNDACIÓN CENTRO NACIONAL DE INVESTIGACIONES ONCOLOGICAS …, priority 2009, dated 2017).
# Where two headings read alike, the source gives them in different places.
# Legend:
# [1] = test system: HTC116 cells (colon carcinoma); test: MTT in vitro cell proliferation / combination assay, HTC116; format: cell-based
# Protocol: (§1) A combination index score is calculated by the Chou and Talalay method (CalcuSyn software, Biosoft). The strength of synergy is scored using the ranking system Chou and Talalay: CI less than 0.8 indicates synergy, CI between 0.8 and 1.2 indicates additivity and CI greater than 1.2 indicates antagonism.
# (§2) The EC50 values of representative combinations were also calculated. The individually measured EC50 values of the chemotherapeutic agent and the example compounds are compared to the EC50 value of the combination. The cell lines are characterised by tumor type.
# SKMel19 cells (melanoma) = test: MTT in vitro cell proliferation / combination assay, SKMel19; format: cell-based
# Protocol: as §1
# (§3) The EC50 values of representative combinations were also calculated. The individually measured EC50 values of the chemotherapeutic agent and the example compounds are compared to the EC50 value of the combination. The cell lines are characterised by tumor type. […]
# DU145 cells (prostate) = test: MTT in vitro cell proliferation / combination assay, DU145; format: cell-based
# Protocol: (§4) Proliferation assays (MTT) were performed as described in: • “Chemical interrogation of FOXO3a nuclear translocation identifies potent and selective inhibitors of phosphoinositide 3-kinases”, W. Link, J. Oyarzabal, B. G. Serelde, M. I. Albarran, O. Rabal, A. Cebria, P. Alfonso, J. Fominaya, O. Renner, S. Peregrina, D. Soilan, P. A. Ceballos, A. I. Hernandez, M. Lorenzo, P. Pevarello, T. G. Granda, G. Kurz, A. Carnero, J. R. Bischoff, J. Biol. Chem. 284 (2009) 28392-28400. Combination Assay
# as §1, §2
# (§5) Combination assays were performed as described in: • “Pim 1 kinase inhibitor ETP-45299 suppresses cellular proliferation and synergizes with PI3K inhibition”. Blanco-Aparicio, Carmen; Collazo, Ana Maria Garcia; Oyarzabal, Julen; Leal, Juan F.; Albaran, Maria Isabel; Lima, Francisco Ramos; Pequeno, Belen; Ajenjo, Nuria; Becerra, Mercedes; Alfonso, Patricia; Reymundo, Maria Isabel; Palacios, Irene; Mateos, Genoveva; Quinones, Helena; Corrionero, Ana; Carnero, Amancio; Pevarello, Paolo; Lopez, Ana Rodriguez; Fominaya, Jesus; Pastor, Joaquin; Bischoff, James R. Cancer Letters (Shannon, Ireland) 2011, 300(2), 145-153.
# [2] = test system: NCI H1975 cells (non small cell lung carcinoma); test: MTT in vitro cell proliferation / combination assay, NCI H1975; format: cell-based
# Protocol: as §1, §2
# (§6) Blanco-Aparicio, Carmen; Collazo, Ana Maria Garcia; Oyarzabal, Julen; Leal, Juan F.; Albaran, Maria Isabel; Lima, Francisco Ramos; Pequeno, Belen; Ajenjo, Nuria; Becerra, Mercedes; Alfonso, Patricia; Reymundo, Maria Isabel; Palacios, Irene; Mateos, Genoveva; Quinones, Helena; Corrionero, Ana; Carnero, Amancio; Pevarello, Paolo; Lopez, Ana Rodriguez; Fominaya, Jesus; Pastor, Joaquin; Bischoff, James R. Cancer Letters (Shannon, Ireland) 2011, 300(2), 145-153.
# [3] = test system: A549 cells (lung adenocarcinoma); test: MTT in vitro cell proliferation / combination assay, A549; format: cell-based
# Protocol: as §1, §2, §6
# [4] = test system: MV4:11 cells (leukemia, AML); test: MTT in vitro cell proliferation / combination assay, MV4:11; format: cell-based
# Protocol: as §1, §3
# [5] = test system: Jeko-1 cells (Mantle cell lymphoma); test: MTT in vitro cell proliferation / combination assay, Jeko-1; format: cell-based; details: for EC50: Homo sapiens
# Protocol: as §1, §2, §6
# PIM-1 = PIM-1 (Homo sapiens (Human), UniProt P11309); test: PIM-1 biochemical assay (ADP Hunter); details: read-out: PIM1 IC50; semi-quantitative
# [6] = test system: MiaPaca-2 cells (pancreas); test: MTT in vitro cell proliferation / combination assay, MiaPaca-2; format: cell-based; details: for EC50: Homo sapiens, MIA PaCa-2
# Protocol: as §4, §1, §2, §5
# [7] = test system: Mantle cell lymphoma cells; test: MTT in vitro cell proliferation / combination assay, mantle cell lymphoma (cell line not given); format: cell-based; details: Mantle cell lymphoma (cell line cell empty), chemotherapeutic alone; read-out: Chemoth EC50
# Protocol: as §4, §1, §2, §5
# [8] = HTC116, combination with PD-0325901
# [9] = HTC116, combination with lapatinib
# [10] = SKMel19, combination with GDC-0879
# [11] = SKMel19, combination with GDC-0941
# [12] = DU145, combination with Taxotere
# [13] = NCI H1975, combination with GDC-0941
# [14] = A549, combination with GDC-0941
# [15] = MV4:11, combination with GDC-0941
# [16] = MV4:11, combination with lapatinib
# [17] = Jeko-1, combination with GDC-0941
# [18] = Jeko-1, combination with lapatinib
# [19] = MiaPaca-2, combination with lapatinib
# Sequence of PIM-1 (P11309 whole entry): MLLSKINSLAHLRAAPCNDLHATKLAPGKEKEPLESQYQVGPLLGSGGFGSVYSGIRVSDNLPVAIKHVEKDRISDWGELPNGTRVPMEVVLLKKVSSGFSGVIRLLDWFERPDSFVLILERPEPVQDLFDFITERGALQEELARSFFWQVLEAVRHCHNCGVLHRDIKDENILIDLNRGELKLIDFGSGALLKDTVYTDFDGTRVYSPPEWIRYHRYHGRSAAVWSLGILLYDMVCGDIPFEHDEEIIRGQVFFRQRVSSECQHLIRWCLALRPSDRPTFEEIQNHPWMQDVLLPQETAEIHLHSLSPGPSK
compound,measurement,setting,value
"CN1CCOc2c1c(N1CCC3(CC1)CC(N)C3)nn1c(-c3cccc(OC(F)(F)F)c3)nnc21 [Example 48, 7-[6-Methyl-3-(3-trifluoromethoxy-phenyl)-7,8-dihydro-6H-9-oxa-1,2,3a,4,6-pentaaza-cyclopenta[a]naphthalen-5-yl]-7-aza-spiro[3.5]non-2-ylamine]",Combination Index (CI),[1]; [8],0.759
same,Synergy,[1]; [8],+ (0.7<C1<1.2)
same,Combination Index (CI),[1]; [9],0.608
same,Synergy,[1]; [9],++ (0.3<C1<0.7)
same,EC50,"[1]; HTC116, example compound alone, read-out: Example EC50",10 µM
same,EC50,"SKMel19 cells (melanoma); Homo sapiens, SK-MEL19, SKMel19, example compound alone",3 µM
same,Combination Index (CI),SKMel19 cells (melanoma); [10],0.319
same,Synergy,SKMel19 cells (melanoma); [10],++ (0.3<C1<0.7)
same,Combination Index (CI),SKMel19 cells (melanoma); [11],0.571
same,Synergy,SKMel19 cells (melanoma); [11],++ (0.3<C1<0.7)
same,EC50,"SKMel19 cells (melanoma); SKMel19, example compound alone",4 µM
same,Combination Index (CI),DU145 cells (prostate); [12],0.704
same,Synergy,DU145 cells (prostate); [12],+ (0.7<C1<1.2)
same,EC50,"DU145 cells (prostate); Homo sapiens, DU-145, DU145, example compound alone, read-out: Example EC50",15 µM
same,EC50,"[2]; Homo sapiens, NCI H1975, example compound alone",5 µM
same,Combination Index (CI),[2]; [13],0.038
same,Synergy,[2]; [13],++++ (CI<0.1)
same,Combination Index (CI),[3]; [14],0.12
same,Synergy,[3]; [14],+++ (0.1<CI<0.3)
same,EC50,"[3]; Homo sapiens, A549, example compound alone",6 µM
same,EC50,"[4]; Homo sapiens, MV4:11, example compound alone",1 µM
same,Combination Index (CI),[4]; [15],0.3
same,Synergy,[4]; [15],+++ (0.1<CI<0.3)
same,Combination Index (CI),[4]; [16],0.548
same,Synergy,[4]; [16],++ (0.3<C1<0.7)
same,EC50,"[5]; Jeko-1, example compound alone, read-out: Example EC50",2.5 µM
same,Combination Index (CI),[5]; [17],0.718
same,Synergy,[5]; [17],+ (0.7<C1<1.2)
same,Combination Index (CI),[5]; [18],0.244
same,Synergy,[5]; [18],+++ (0.1<CI<0.3)
same,IC50,PIM-1,< 0.1 µM
same,EC50,"[6]; MiaPaca-2, example compound alone, read-out: Example EC50",5 µM
same,Combination Index (CI),[6]; [19],0.57
same,Synergy,[6]; [19],++ (0.3<C1<0.7)
"CS(=O)(=O)CCNCc1ccc(-c2ccc3ncnc(Nc4ccc(OCc5cccc(F)c5)c(Cl)c4)c3c2)o1 [lapatinib, N-(3-chloro-4-(3-fluorobenzyloxy)phenyl)-6-(5-((2-(methylsulfonyl)ethylamino)-methyl)furan-2-yl)quinazolin-4-amine, reference compound]",EC50,"[1]; HTC116, chemotherapeutic alone, read-out: Chemoth EC50",10 µM
same,EC50,[7],5 µM
same,EC50,"[5]; Jeko-1, chemotherapeutic alone, read-out: Chemoth EC50",5 µM
same,EC50,"[6]; MiaPaca-2, chemotherapeutic alone, read-out: Chemoth EC50",20 µM
